In brackets after ≈: the same amount, converted by molar mass. Read-outs that look alike come from different tables or passages of the source.
Tests used:
[1] = test system: Fusarium graminearum; format: in vivo; details: spray on flowering Triticum aestivum cv. Samson, inoculated 24 hours after treatment, evaluated 14 days later
[2] = test system: Fusarium moniliforme (Fm); assay: In vitro pathogen growth inhibition assay, Fm; format: cell-based; details: Fusarium verticillioides
How it was run: (§1)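 Value reported is the compound concentration reaching ≥90% growth inhibition, from OD readings at 24 and 48 h after blank subtraction, confirmed visually. Inoculum was spores diluted in 17% V8 medium, except Rs, using 1.5 mm mycelial plugs in ¼ PDB; actual compound concentration corrected via OD600.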

[3] = test system: Septoria tritici (St); assay: In vitro pathogen growth inhibition assay, St; format: cell-based; details: Zymoseptoria tritici, 48 h
How it was run: as §1

[4] = test system: Puccinia triticina; assay: Foliar protection test for wheat leaf rust control; format: in vivo; details: foliar application to wheat (Triticum aestivum cv. Winterhawk), evaluated 10 days later
[5] = test system: Sphaerotheca fuliginea; assay: Foliar protection for cucumber powdery mildew control; format: in vivo; details: foliar spray on Cucumis sativus cv. Straight Eight, inoculated 24 hours after treatment, evaluated 7 days later
Protocol: Plants (Cucumis sativus cv. Straight Eight) were grown for 10 days in 2.5-inch square pots containing Metromix 200 medium amended with fertilizer. For propagation, plants were maintained in a growth chamber at conditions of 23 to 27° C., 16 hour light cycle, ambient humidity, and with sub-irrigation as needed. After inoculation with the pathogen of Sphaerotheca fuliginea, plants were kept at conditions of 23 to 27° C., 16 hour light cycle, 60% relative humidity, and with sub-irrigation as needed to facilitate infection and disease development. […] An atomizer was used for applying the solution onto both sides of the leaves until thoroughly wetted. […] At 24 hours after treatment, the plants were moved to a cooler chamber and inoculated by shaking well-colonized, untreated stock plants above the treated plants. This allowed producing a settling cloud of spores and resulting in uniform infection. Inoculated plants were kept near other sporulating stock plants to allow for infection of newly emerging leaves. Efficacy was evaluated in 7 days later by examining leaves for colonization and growth of mildew. Table 5 lists the results of cucumber powdery mildew control at a compound concentration of 10 ppm or lower.

[6] = test system: Phakopsora pachyrhizi; assay: Foliar protection test for Asian soybean rust control; format: in vivo; details: foliar application to soybean (Glycine max AG4832), percent disease area evaluated 14 days later
[7] = test system: Mycosphaerella graminicola (synthetic Septoria tritici); assay: Foliar protection test for wheat septoria leaf blotch control; format: in vivo; details: foliar spray on Triticum aestivum cv. WinterHawk, inoculated 1 hour after treatment, evaluated 16 days later
[8] = test system: Blumeria graminis f. sp. hordei; assay: Foliar protection test for barley powdery mildew control; format: in vivo; details: foliar spray on Hordeum vulgare cv. Perry, inoculated 24 hours after treatment, evaluated 7 days later
Protocol: Plants (Hordeum vulgare cv. Perry) were grown for 6 days in 2-inch square pots containing Metromix 200 medium amended with fertilizer. […] After inoculation with the pathogen of Blumeria graminis f. sp. hordei, plants were kept at conditions of 20 to 22° C., 70% relative humidity, and 200 uM of light to facilitate infection and disease development. […] An atomizer was used for applying the solution onto both sides of the leaves until thoroughly wetted. […] At 24 hours after treatment, the plants were moved to a cooler chamber and inoculated by shaking well-colonized, untreated stock plants above the treated plants. This allowed producing a settling cloud of spores and resulting in uniform infection. Efficacy was evaluated in 7 days later by examining leaves for colonization and growth of mildew. Table 4 lists the results of barley powdery mildew control at a compound concentration of 10 ppm or lower.

[9] = test system: Rhizoctonia solani (Rs); assay: In vitro pathogen growth inhibition assay, Rs (mycelial plugs); format: cell-based; details: mycelial plugs; for IC90: Rhizoctonia solani, 48 h
How it was run: (§2)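 Spores of Dm, Fv and Pc were diluted in 17% V8 liquid medium; Rs used 1.5 mm mycelial plugs in ¼ PDB. Compounds from 2.5 mg/ml DMSO stocks were combined with inoculum, growth was read by OD600 at 24 and 48 h with blank subtraction, and the reported value is the concentration giving ≥90% inhibition.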

[10] = test system: Fusarium virguliforme (Fv); assay: In vitro pathogen growth inhibition assay, Fv; format: cell-based
How it was run: as §2

[11] = test system: Diplodia maydis (Dm); assay: In vitro pathogen growth inhibition assay, Dm; format: cell-based; details: Stenocarpella maydis, 48 h
How it was run: as §2

[12] = test system: Phytophthora capsici (Pc); assay: In vitro pathogen growth inhibition assay, Pc; format: cell-based; details: 48 h
How it was run: as §2

[13] = test system: Collectotrichum graminicola (Cg); assay: In vitro pathogen growth inhibition assay, Cg; format: cell-based; details: 48 h
How it was run: as §1

[14] = test system: Botrtyis cinerea (Bc); assay: In vitro pathogen growth inhibition assay, Bc; format: cell-based; details: 48 h
How it was run: as §1

[15] = ≥90% growth inhibition, 48 hours, vs 2% DMSO control, read-out: Compound Concentration (ppm) sufficient for ≥90% inhibition of Fm
[16] = ≥90% growth inhibition, 48 hours, vs 2% DMSO control, read-out: Compound Concentration (ppm) sufficient for ≥90% inhibition of St
[17] = ≥90% growth inhibition, 48 hours, vs 2% DMSO control, read-out: Compound Concentration (ppm) sufficient for ≥90% inhibition of Fv
[18] = ≥90% growth inhibition, 48 hours, vs 2% DMSO control, read-out: Compound Concentration (ppm) sufficient for ≥90% inhibition of Dm
[19] = ≥90% growth inhibition, 48 hours, vs 2% DMSO control, read-out: Compound Concentration (ppm) sufficient for ≥90% inhibition of Pc
[20] = ≥90% growth inhibition, 48 hours, vs 2% DMSO control, read-out: Compound Concentration (ppm) sufficient for ≥90% inhibition of Cg
[21] = ≥90% growth inhibition, 48 hours, vs 2% DMSO control, read-out: Compound Concentration (ppm) sufficient for ≥90% inhibition of Rs
[22] = ≥90% growth inhibition, 48 hours, vs 2% DMSO control, read-out: Compound Concentration (ppm) sufficient for ≥90% inhibition of Bc
[23] = ≥90% inhibition, 48 hours vs 2% DMSO control, read-out: Compound Concentration (ppm) sufficient for ≥90% inhibition of growth, Fm
[24] = ≥90% inhibition, 48 hours vs 2% DMSO control, read-out: Compound Concentration (ppm) sufficient for ≥90% inhibition of growth, Dm
[25] = ≥90% inhibition, 48 hours vs 2% DMSO control, read-out: Compound Concentration (ppm) sufficient for ≥90% inhibition of growth, St
[26] = ≥90% inhibition, 48 hours vs 2% DMSO control, read-out: Compound Concentration (ppm) sufficient for ≥90% inhibition of growth, Pc
[27] = ≥90% inhibition, 48 hours vs 2% DMSO control, read-out: Compound Concentration (ppm) sufficient for ≥90% inhibition of growth, Cg
[28] = ≥90% inhibition, 48 hours vs 2% DMSO control, read-out: Compound Concentration (ppm) sufficient for ≥90% inhibition of growth, Rs
[29] = ≥90% inhibition, 48 hours vs 2% DMSO control, read-out: Compound Concentration (ppm) sufficient for ≥90% inhibition of growth, Bc
[30] = ≥90% inhibition, 48 hours vs 2% DMSO control, read-out: Compound Concentration (ppm) sufficient for ≥90% inhibition of growth, Fv

Compound | IC90 [2, 15] [µg/mL] | IC90 [3, 16] [µg/mL] | Wheat Leaf Rust Control at a compound concentration of 10 ppm or lower [4] | Septoria Leaf Blotch Control at a compound concentration of 25 ppm or lower [7] | Barley Powdery Mildew Control at a compound concentration of 10 ppm or lower [8] | IC90 [10, 17] [µg/mL] | IC90 [11, 18] [µg/mL] | IC90 [12, 19] [µg/mL] | IC90 [13, 20] [µg/mL] | IC90 [9, 21] [µg/mL] | IC90 [14, 22] [µg/mL] | IC90 [2, 23] [µg/mL] | IC90 [11, 24] [µg/mL] | IC90 [3, 25] [µg/mL] | IC90 [12, 26] [µg/mL] | IC90 [13, 27] [µg/mL] | IC90 [9, 28] [µg/mL] | IC90 [14, 29] [µg/mL] | IC90 [10, 30] [µg/mL] | further results
CCOC(=O)c1sc2c(c1C)c(=O)n([C@H](C)C(=O)NC(C)C)c(=O)n2C[C@H](OCCC#N)c1cc(F)ccc1OC [Compound I-220, (R)-ethyl-1-(2-(2-cyanoethoxy)-2-(5-fluoro-2-methoxyphenyl)ethyl)-3-((R)-1-(isopropylamino)-1-oxopropan-2-yl)-5-methyl-2,4-dioxo-1,2,3,4-tetrahydrothieno[2,3-d]pyrimidine-6-carboxylate] | 0.08 (≈ 0.136 µM) | > 50 | C (from 25 to 49% control of wheat leaf rust) | B (from 50 to 69% control of wheat septoria leaf blotch) | AA (≥85% control of barley powdery mildew) | 0.4 (≈ 0.68 µM) | – | – | – | – | – | – | – | – | – | – | – | – | – | Wheat Fusarium Head Blight Control at a compound concentration of 25 ppm or lower [1]: C (from 25 to 49% control of wheat fusarium head blight); Cucumber Powdery Mildew Control at a compound concentration of 10 ppm or lower [5]: AA (≥85% control of cucumber powdery mildew); Asian Soybean Rust Control at a compound concentration of 25 ppm or lower [6]: B (from 50 to 69% control of Asian soybean rust); Compound Concentration (ppm) sufficient for ≥90% inhibition of Rs ([9]; ≥90% growth inhibition, 48 hours, vs 2% DMSO control): 0.08 ppm
COCCO[C@@H](Cn1c(=O)n([C@H](C)C(=O)NC(C)C)c(=O)c2c(C)c(-n3cccn3)sc21)c1cc(F)ccc1OC [Compound I-310, (R)-2-(1-((R)-2-(5-fluoro-2-methoxyphenyl)-2-(2-methoxyethoxy)ethyl)-5-methyl-2,4-dioxo-6-(1H-pyrazol-1-yl)-1,4-dihydrothieno[2,3-d]pyrimidin-3 (2H)-yl)-N-isopropylpropanamide] | 0.08 (≈ 0.136 µM) | > 50 | C (from 25 to 49% control of wheat leaf rust) | B (from 50 to 69% control of wheat septoria leaf blotch) | AA (≥85% control of barley powdery mildew) | – | ≥ 2 | > 50 | 2 (≈ 3.4 µM) | 0.08 (≈ 0.136 µM) | 2 (≈ 3.4 µM) | – | – | – | – | – | – | – | – | Wheat Fusarium Head Blight Control at a compound concentration of 25 ppm or lower [1]: C (from 25 to 49% control of wheat fusarium head blight); Cucumber Powdery Mildew Control at a compound concentration of 10 ppm or lower [5]: AA (≥85% control of cucumber powdery mildew); Asian Soybean Rust Control at a compound concentration of 25 ppm or lower [6]: C (from 25 to 49% control of Asian soybean rust)
COCCCO[C@@H](Cn1c(=O)n(C(C)(C)C(=O)NC(C)C)c(=O)c2c(C)c(-n3nccn3)sc21)c1cc(F)ccc1OC [Compound I-084, (R)-2-(1-(2-(5-fluoro-2-methoxyphenyl)-2-(3-methoxypropoxy)ethyl)-5-methyl-2,4-dioxo-6-(2H-1,2,3-triazol-2-yl)-1,4-dihydrothieno[2,3-d]pyrimidin-3 (2H)-yl)-N-isopropyl-2-methylpropanamide] | – | – | A (from 70% to 84% control of wheat leaf rust) | AA (≥85% control of wheat septoria leaf blotch) | AA (≥85% control of barley powdery mildew) | – | – | – | – | – | – | 0.08 (≈ 0.13 µM) | 0.08 (≈ 0.13 µM) | ≥ 10 | > 50 | 0.4 (≈ 0.649 µM) | 0.4 (≈ 0.649 µM) | 0.4 (≈ 0.649 µM) | 0.08 (≈ 0.13 µM) | –
COc1ccc(F)cc1[C@H](Cn1c(=O)n(C(C)(C)C(=O)NC(C)C)c(=O)c2c(C)c(-n3nccn3)sc21)OC[C@H](C)O [Compound I-066] | – | – | – | – | – | – | – | – | – | – | – | 0.08 (≈ 0.133 µM) | ≥ 0.4 | ≥ 10 | 50 (≈ 83 µM) | ≥ 0.4 | ≥ 0.4 | ≥ 0.4 | 0.4 (≈ 0.664 µM) | –
COc1ccc(F)cc1[C@H](Cn1c(=O)n(C(C)(C)C(=O)N2CCCC2)c(=O)c2c(C)c(-n3nccn3)sc21)OC1CCOCC1 [Compound I-037] | – | – | – | – | – | – | – | – | – | – | – | 0.08 (≈ 0.125 µM) | ≥ 0.08 | ≥ 2 | 10 (≈ 15.6 µM) | ≥ 0.08 | 0.08 (≈ 0.125 µM) | ≥ 0.4 | 0.4 (≈ 0.624 µM) | –
COc1ccc(F)cc1[C@H](Cn1c(=O)n([C@@H](C)C(=O)N(C)C(C)C)c(=O)c2c(C)c(-n3nccn3)sc21)OCCC#N [Compound I-204] | 0.4 (≈ 0.669 µM) | > 50 | – | – | – | 2 (≈ 3.35 µM) | 2 (≈ 3.35 µM) | > 50 | 10 (≈ 16.7 µM) | 2 (≈ 3.35 µM) | 2 (≈ 3.35 µM) | – | – | – | – | – | – | – | – | –
Cc1c(-n2nccn2)sc2c1c(=O)n(C(C)(C)C(=O)NC(C)C)c(=O)n2C[C@H](OCCC#N)c1cc(F)ccc1O [Compound I-282] | 0.4 (≈ 0.685 µM) | > 50 | – | – | – | 2 (≈ 3.43 µM) | ≥ 10 | 10 (≈ 17.1 µM) | 2 (≈ 3.43 µM) | 0.4 (≈ 0.685 µM) | 2 (≈ 3.43 µM) | – | – | – | – | – | – | – | – | –
COc1ccccc1[C@H](Cn1c(=O)n(C(C)(C)C(=O)N2CCCC2)c(=O)c2c(C)c(-n3nccn3)sc21)OCCC#N [Compound I-196] | 0.4 (≈ 0.676 µM) | > 50 | – | – | – | 2 (≈ 3.38 µM) | 10 (≈ 16.9 µM) | > 50 | 10 (≈ 16.9 µM) | 2 (≈ 3.38 µM) | 2 (≈ 3.38 µM) | – | – | – | – | – | – | – | – | –

From patent publication US10941157B2, “Pesticidal compositions and uses thereof” (Gilead Apollo, LLC, priority 2015, dated 2021)
